The experiment has as its target T1, RIPK2 (Homo sapiens, UniProt O43353).
T1 construct: Full length FLAG His tagged RIPK2 was purified from a Baculovirus expression system; FLAG (N); 6His (N); made in house; host or cells: Spodoptera frugiperda (Sf9) insect cells, baculovirus
The experiment is described as follows: Fluorescent polarization based binding assay at the ATP binding pocket of RIPK2. To be noted: FP competition with fluorescently labeled ATP competitive ligand (5 nM); full length FLAG His tagged RIPK2; mean of a minimum of 2 experiments; read-out: mean pIC50 (converted). The text has this:
A fluorescent polarization based binding assay was developed to quantitate interaction of novel test compounds at the ATP binding pocket of RIPK2, by competition with a fluorescently labeled ATP competitive ligand. Full length FLAG His tagged RIPK2 was purified from a Baculovirus expression system and was used at a final assay concentration of twice the KDapparent. A fluorescent labeled ligand (5-({[2-({[3-({4-[(5-hydroxy-2-methylphenyl)amino]-2-pyrimidinyl}amino)phenyl]carbonyl}amino)ethyl]amino}carbonyl)-2-(6-hydroxy-3-oxo-3H-xanthen-9-yl)benzoic acid, prepared as described below) was used at a final assay concentration of 5 nM. Both the enzyme and ligand were prepared in solutions in 50 mM HEPES pH7.5, 150 mM NaCl, 10 mM MgCl2, 1 mM DTT, and 1 mM CHAPS. Test compounds were prepared in 100% DMSO and 100 nL was dispensed to individual wells of a multiwell plate. Next, 5 ul RIPK2 was added to the test compounds at twice the final assay concentration, and incubated at room temperature for 10 minutes. […] Finally, samples were read on an instrument capable of measuring fluorescent polarization. Test compound inhibition was expressed as percent (%) inhibition of internal assay controls.
For concentration response experiments, normalized data were fit and pIC50 s determined using conventional techniques. […]

Structures can show the parent of a compound that is named as a salt.

We go through two compounds from patent publication US20130023532A1, “INDAZOLYL-PYRIMIDINES AS KINASE INHIBITORS” (priority 2010, published 2013).

T1 sequence (O43353 whole entry): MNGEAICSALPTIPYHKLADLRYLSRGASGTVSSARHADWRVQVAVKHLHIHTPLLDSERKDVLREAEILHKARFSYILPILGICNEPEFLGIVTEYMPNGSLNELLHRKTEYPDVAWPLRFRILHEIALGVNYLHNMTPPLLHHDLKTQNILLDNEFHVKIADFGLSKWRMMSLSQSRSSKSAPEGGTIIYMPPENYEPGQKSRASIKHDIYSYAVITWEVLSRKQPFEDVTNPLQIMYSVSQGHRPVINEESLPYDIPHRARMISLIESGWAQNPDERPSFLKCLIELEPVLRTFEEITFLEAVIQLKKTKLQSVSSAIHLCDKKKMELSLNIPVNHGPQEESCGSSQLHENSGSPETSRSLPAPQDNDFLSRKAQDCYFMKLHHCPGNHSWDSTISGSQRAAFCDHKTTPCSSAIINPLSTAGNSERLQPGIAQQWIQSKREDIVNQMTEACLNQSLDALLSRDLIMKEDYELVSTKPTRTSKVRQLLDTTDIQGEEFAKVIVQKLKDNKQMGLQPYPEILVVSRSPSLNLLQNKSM

For the compound `COc1ccc2[nH]nc(Nc3ccnc(Nc4cc(OC)c(OC)c(OC)c4)n3)c2c1` [Example 12, N^4-[5-(methyloxy)-1H-indazol-3-yl]-N^2-[3,4,5-tris(methyloxy)phenyl]-2,4-pyrimidinediamine], the IC50 was 7.94 nM.

`COc1ccc2[nH]nc(Nc3ccnc(Nc4ccc(F)c(S(C)(=O)=O)c4)n3)c2c1` [Example 27, N^2-[4-fluoro-3-(methylsulfonyl)phenyl]-N^4-[5-(methyloxy)-1H-indazol-3-yl]-2,4-pyrimidinediamine trifluoroacetate]: the IC50 is 50.1 nM.
